Laboratory results reported in patent US7776833B2, “Use of cyclic bioisosters of purine system derivatives for treating diseases produced by disorders of niterergic and dopaminergic systems” (priority 2003, dated 2010).

What was measured:
Type in all cases: in vivo, Wistar rats
[1] = test system: nitric oxide synthase (NOS); experiment: Nitric oxide synthase activity in brain regions, radiometric [3H]L-citrulline method; settings: 3 x 20 mg/kg intramuscularly
Experimental: (§1) After the above experiments the rat brains were isolated and immediately placed in the ice cold 0.9% solution of sodium chloride. After cooling the following structures were isolated from the brain: cerebral cortex, hippocampus, mesencephalon, striatum, brainstem, hypothalamus and cerebellum. The isolated tissue was homogenized in a Potter S homogenizer for 3 minutes at 1500 rpm in 4-5 volumes of 20 mM HEPES (pH 7.5) at 4° C. The supernatants were centrifuged for 30 minutes at 11000 g at 4° C., and aliquots of the obtained supernatants were taken for determining nitrates and nitrites (NOx-), while the remaining part was mixed with cooled 20 mM of HEPES (pH 7.5), containing 0.5 mM ethylenediamine tetraacetate (EDTA), 1 mM dithiotreitol (DDT), 1 mM phenylmethylsulfonyl fluoride (PMSF), aprotinine and leupeptine at a concentration of 5 μg/ml, this mixture being used for determining nitric oxide synthase (NOS) activity.
The activity of nitric oxide synthase (NOS) was determined using a radiometric method by the rate of L-citrulline accumulation in a reaction of [^3H] L-arginine oxidation catalyzed by NOS (Bredt M., Snyder S. Nitric oxide mediates glutamate-linked enhancement of cGMP levels in the cerebellum. Proc. Natl. Acad. Sci., USA, 1989, V.86, p.9030-9033). The formation of L-citrulline in this reaction is equivalent to a biosynthesis of nitric oxide.
The reaction was initiated by adding brain supernatant in the reaction medium containing 2 μCi/ml of [3H] L-arginine, 20 mM HEPES (pH 7.4), 0.2 mM CaCl2, 5 μM FAD, 5 μM FMN, 1 mM NADPH, 50 μM of BH4. After 15-60 minutes of incubation at 37° C. a suspension of Dowex 50WX8-400 (Na^+-form), which sorbs unreacted [^3H]L-arginine, but not [^3H] L-citrulline was added to the samples. After the sorption the radioactivity of the samples was determined on a scintillation counter SL-4000 (“Intertechnique”). The activity of Ca^2+-dependent and Ca^2+-independent NOS isoforms was determined by the difference of rates of [^3H]L-citrulline formation in three parallel samples containing 2 mM EDTA (Ca^2+ chelator), 2 mM EDTA+2 mM L-NAME (inhibitor all NOS isoforms) or without inhibitors. The enzyme activity was expressed in rnol [^3H]L-citrulline acumulated per 1 minute on 1 mg of supernatant protein.
(§2) The content of protein in the samples was determined by the Bradford method (Bradford M. M. A rapid and sensitive method for quantitation of microgram quantities of protein using the principle of protein binding . Anal. Biochem., 1976, V. 72, p. 248-254) using Coumassi dye. The statistical analysis was performed using methods appropriate for respective experiments. The data are expressed as mean±standard error of mean.

[2] = test system: nitrites and nitrates (NOx-); experiment: Measurement of nitrates/nitrites (NOx-) in brain regions after the morphine abstinence experiment; settings: 3 x 20 mg/kg intramuscularly
Experimental: as §1
To estimate the intensity of metabolism of nitric oxide in rats, quantitative determination of stable metabolites of nitrogen oxide-nitrites and nitrates (NOx-) was performed using a fluorometric method by fluorescence of naphthotriazole, a product of reaction of 2,3- diaminonaphthalene (DAN) and nitrite in an acidic medium (Misko T. R., Schilling R. J., Salvemini D. et al. A fluorometric assay for the measurement of nitrite in biological samples. Anal. Biochem., 1993, V. 214, p.11-16) with modifications (Lei B., Adachi N., Nagaro T., Arai T. Measurement of total nitric oxide metabolite (NO (x) (-)) levels in vivo. Brain. Res. Protoc., 1999, V. 4, p. 415-419).
The supernatants of brain deproteinized at 100° C. were placed in a nitrite recovery system containing 0.125 unit/ml of nitrate reductase, 25 μM NADPH and 25 μM FAD prepared in 20 mM Tris-HCl buffer pH 7.6 and incubated for 30 minutes at 37° C. For oxidation of NADPH a lactate dehydrogenase (LDH)/pyruvate system was used. Then 316.0 μM DAN solution in 0.62 M HCl was added and the mixture was incubated for 10 minutes in dark. For stabilization of fluorescence of the formed naphthotriazole, 280 mM NaOH was added. The fluorescence intensity was measured using spectrofluorometer Hitachi F-3000 at a wavelength of excitation 365 nm and emission 405 nm. To calculate the concentration of NOx- in the brain a standard solution of sodium nitrate was used. The concentration of NOx- was expressed in nmol/mg of protein.
as §2

[3] = test system: physical dependence from morphine (morphine abstinence); experiment: Morphine abstinence syndrome, signs scored in the open field test; settings: Morphine − (morphine + compound); compound 3 x 20 mg/kg intramuscularly; one value for the three compounds
Experimental: Thirty six hours after the last injection selected motor and autonomice parameters which are specific symptoms of abstinence were monitored in the <<open field>> test (an arena with a diameter of 120 cm and wall height of 40 cm).
Med., 2002, V.29, p.1-6.). The observable signs were recorded quantitatively (if it was possible) with further assignment of an index to each sign (depending on the specific feature of the sign) and calculation of the sum of scores. The expression of the abstinence syndrome was presented as a sum of scores. The results were processed using nonparametric statistical analysis based on the Mann-Whitney test.

[4] = Groups Nos. 3-14, compound without morphine, one value for all 12 compounds
[5] = Morphine + compound, one value for the three compounds

Structure (SMILES): Nc1cccc2c(=O)n([C@@H]3O[C@H](CO)[C@@H](O)[C@H]3O)[nH]c(=O)c12.[Na] [Compound 10, sodium salt of 5-amino-2-(β-D-ribofuranosile)benzo[d]-3H-pyridazine-1,4-dione]
- Activity of NOS, hippocampus [1, 4]: 3.09 ± 0.16 nmol/min/mg of protein
- Activity of NOS, hypothalamus [1, 4]: 5.45 ± 0.24 nmol/min/mg of protein
- Activity of NOS, midbrain [1, 4]: 2.60 ± 0.29 nmol/min/mg of protein
- Activity of NOS, striatum [1, 4]: 1.26 ± 0.08 nmol/min/mg of protein
- Activity of NOS, hippocampus [1, 5]: 2.51 ± 0.19 nmol/min/mg of protein
- Activity of NOS, hypothalamus [1, 5]: 5.36 ± 0.33 nmol/min/mg of protein
- Activity of NOS, midbrain [1, 5]: 1.99 ± 0.29 nmol/min/mg of protein
- Activity of NOS, striatum [1, 5]: 1.29 ± 0.09 nmol/min/mg of protein
- Nitrites, brainstem [2, 4]: 6.31 ± 0.58 nmol/mg of protein
- Nitrites, cerebellum [2, 4]: 6.66 ± 0.63 nmol/mg of protein
- Nitrites, cerebral cortex [2, 4]: 4.31 ± 0.37 nmol/mg of protein
- Nitrites, hippocampus [2, 4]: 6.47 ± 0.72 nmol/mg of protein
- Nitrites, hypothalamus [2, 4]: 6.77 ± 0.83 nmol/mg of protein
- Nitrites, midbrain [2, 4]: 6.65 ± 0.70 nmol/mg of protein
- Nitrites, striatum [2, 4]: 6.11 ± 0.29 nmol/mg of protein
- Nitrites, brainstem [2, 5]: 6.99 ± 0.82 nmol/mg of protein
- Nitrites, cerebellum [2, 5]: 5.85 ± 0.47 nmol/mg of protein
- Nitrites, cerebral cortex [2, 5]: 4.93 ± 0.39 nmol/mg of protein
- Nitrites, hippocampus [2, 5]: 5.24 ± 0.49 nmol/mg of protein
- Nitrites, hypothalamus [2, 5]: 6.91 ± 0.58 nmol/mg of protein
- Nitrites, midbrain [2, 5]: 5.75 ± 0.39 nmol/mg of protein
- Nitrites, striatum [2, 5]: 3.57 ± 0.42 nmol/mg of protein
- Authentic differences (ξ-square criterion) in appearance of signs of abstinence: <<Wet dog>> shakes [3]: 0.7562
- Authentic differences (ξ-square criterion) in appearance of signs of abstinence: Aggression [3]: 0.8456
- Authentic differences (ξ-square criterion) in appearance of signs of abstinence: Convulsions [3]: 0.7546
- Authentic differences (ξ-square criterion) in appearance of signs of abstinence: Diarrhea [3]: 0.0032
- Authentic differences (ξ-square criterion) in appearance of signs of abstinence: Dyspnea [3]: 0.0834
- Authentic differences (ξ-square criterion) in appearance of signs of abstinence: Forelimb jogging [3]: 0.8217
- Authentic differences (ξ-square criterion) in appearance of signs of abstinence: Grit with teeth [3]: 0.8652
- Authentic differences (ξ-square criterion) in appearance of signs of abstinence: Mastication [3]: 0.1032
- Authentic differences (ξ-square criterion) in appearance of signs of abstinence: Piloerection [3]: 0.2567
- Authentic differences (ξ-square criterion) in appearance of signs of abstinence: Ptosis [3]: 0.0320
- Authentic differences (ξ-square criterion) in appearance of signs of abstinence: Rhinorrhea [3]: 0.4032
- Authentic differences (ξ-square criterion) in appearance of signs of abstinence: Squeak when touched [3]: 0.1342

Structure (SMILES): O=c1[nH]n([C@@H]2O[C@H](CO)[C@@H](O)[C@H]2O)c(=O)c2nccc(O)c12.[Na] [Compound 4, isodium salt of 4-hydroxy-7-(β-D-ribofuranosile)pyrido[2,3-d]-6H-pyridazine-5,8-dione]
- Activity of NOS, hippocampus [1, 4]: 3.09 ± 0.16 nmol/min/mg of protein
- Activity of NOS, hypothalamus [1, 4]: 5.45 ± 0.24 nmol/min/mg of protein
- Activity of NOS, midbrain [1, 4]: 2.60 ± 0.29 nmol/min/mg of protein
- Activity of NOS, striatum [1, 4]: 1.26 ± 0.08 nmol/min/mg of protein
- Activity of NOS, hippocampus [1, 5]: 2.70 ± 0.14 nmol/min/mg of protein
- Activity of NOS, hypothalamus [1, 5]: 5.26 ± 0.28 nmol/min/mg of protein
- Activity of NOS, midbrain [1, 5]: 1.83 ± 0.23 nmol/min/mg of protein
- Activity of NOS, striatum [1, 5]: 1.24 ± 0.08 nmol/min/mg of protein
- Nitrites, brainstem [2, 4]: 6.31 ± 0.58 nmol/mg of protein
- Nitrites, cerebellum [2, 4]: 6.66 ± 0.63 nmol/mg of protein
- Nitrites, cerebral cortex [2, 4]: 4.31 ± 0.37 nmol/mg of protein
- Nitrites, hippocampus [2, 4]: 6.47 ± 0.72 nmol/mg of protein
- Nitrites, hypothalamus [2, 4]: 6.77 ± 0.83 nmol/mg of protein
- Nitrites, midbrain [2, 4]: 6.65 ± 0.70 nmol/mg of protein
- Nitrites, striatum [2, 4]: 6.11 ± 0.29 nmol/mg of protein
- Nitrites, brainstem [2, 5]: 6.57 ± 0.72 nmol/mg of protein
- Nitrites, cerebellum [2, 5]: 5.46 ± 0.44 nmol/mg of protein
- Nitrites, cerebral cortex [2, 5]: 4.72 ± 0.37 nmol/mg of protein
- Nitrites, hippocampus [2, 5]: 5.44 ± 0.43 nmol/mg of protein
- Nitrites, hypothalamus [2, 5]: 6.57 ± 0.88 nmol/mg of protein
- Nitrites, midbrain [2, 5]: 5.50 ± 0.48 nmol/mg of protein
- Nitrites, striatum [2, 5]: 3.57 ± 0.42 nmol/mg of protein
- Authentic differences (ξ-square criterion) in appearance of signs of abstinence: <<Wet dog>> shakes [3]: 1.0000
- Authentic differences (ξ-square criterion) in appearance of signs of abstinence: Aggression [3]: 0.8327
- Authentic differences (ξ-square criterion) in appearance of signs of abstinence: Convulsions [3]: 0.7821
- Authentic differences (ξ-square criterion) in appearance of signs of abstinence: Diarrhea [3]: 0.0046
- Authentic differences (ξ-square criterion) in appearance of signs of abstinence: Dyspnea [3]: 0.0722
- Authentic differences (ξ-square criterion) in appearance of signs of abstinence: Forelimb jogging [3]: 0.7821
- Authentic differences (ξ-square criterion) in appearance of signs of abstinence: Grit with teeth [3]: 0.7144
- Authentic differences (ξ-square criterion) in appearance of signs of abstinence: Mastication [3]: 0.1888
- Authentic differences (ξ-square criterion) in appearance of signs of abstinence: Piloerection [3]: 0.1847
- Authentic differences (ξ-square criterion) in appearance of signs of abstinence: Ptosis [3]: 0.0201
- Authentic differences (ξ-square criterion) in appearance of signs of abstinence: Rhinorrhea [3]: 0.3017
- Authentic differences (ξ-square criterion) in appearance of signs of abstinence: Squeak when touched [3]: 0.1888
